The values below are quoted from earlier work in patent US20120093932A1, “TARGETED SUSTAINED-RELEASE MICROSPHERE OF VASCULAR OCCLUSIVE AGENT CONTAINING SODIUM ALGINATE AND SORAFENIB, PRODUCTION METHOD AND USE THEREOF” (Beijing Shengyiyao Science & Technology Development Co., …, priority 2009, published 2012).

Structures are written as SMILES.

Experiment in series [1]: not given
This is another data set of the same source.

For series [2] the following is noted: oral single dose, solution containing 100 mg sorafenib.
For series [3] the following is noted: 400 mg orally twice a day; Phase I.
The conditions of series [4]: oral administration.

Turning to `[O-][n+]1ccccc1` [pyridine N-Oxide], the “role in vitro compared to sorafenib” value was “plays a similar role to sorafenib”.
`CNC(=O)c1cc(Oc2ccc(NC(=O)Nc3ccc(Cl)c(C(F)(F)F)c3)cc2)ccn1.Cc1ccc(S(=O)(=O)O)cc1` [sorafenib tosylate]: in series [1] (alcohol), the solubility in alcohol entry is on record as “slightly soluble”. In addition, the “solubility in aqueous solution” value in series [1] (aqueous solution, becomes higher a little bit under strongly acid condition) was “low”. The “solubility in polyethylene glycerol 400” value in series [1] (polyethylene glycerol 400) was “can be dissolved”.
With `CNC(=O)c1cc(Oc2ccc(NC(=O)Nc3ccc(Cl)c(C(F)(F)F)c3)cc2)ccn1` [sorafenib, 4-{4-[3-(4-chloro-3-trifluoro-phenyl)-ureido]-phenoxyl}-pyridine-2-carboxylic methylamine], the “excreted as glucuronic acid metabolic products in urine” value in series [2] is reported as 19%. For the same compound, in series [2] (within 14 days), the “excreted unchanged (faeces)” value was 15% and the “sorafenib excreted in the faeces” value is 77%. In series [3], the tolerability and effectiveness result was “tolerated and effective”. In series [4], the “side effects: diarrhea” value is recorded as 58%, the “side effects: gastrointestinal response” value is on record as 95%, the “side effects: indigestion accompanied by appetite loss” value is on record as 47% and the “side effects: nausea” value is recorded as 30%. Further, in series [4], the “side effects: vomiting” value is 24%.
